Paper PMC12215270 (Nature Communications, 2025)

Legend:
[1] = biological target: T1, TgCmt (guanine-N7 methyltransferase) (Toxoplasma gondii, UniProt S8F527); test: in vitro RNA cap methylation, anti-m7G immuno-dot blot; type: biochemical
T1 sequence (S8F527 716-1283): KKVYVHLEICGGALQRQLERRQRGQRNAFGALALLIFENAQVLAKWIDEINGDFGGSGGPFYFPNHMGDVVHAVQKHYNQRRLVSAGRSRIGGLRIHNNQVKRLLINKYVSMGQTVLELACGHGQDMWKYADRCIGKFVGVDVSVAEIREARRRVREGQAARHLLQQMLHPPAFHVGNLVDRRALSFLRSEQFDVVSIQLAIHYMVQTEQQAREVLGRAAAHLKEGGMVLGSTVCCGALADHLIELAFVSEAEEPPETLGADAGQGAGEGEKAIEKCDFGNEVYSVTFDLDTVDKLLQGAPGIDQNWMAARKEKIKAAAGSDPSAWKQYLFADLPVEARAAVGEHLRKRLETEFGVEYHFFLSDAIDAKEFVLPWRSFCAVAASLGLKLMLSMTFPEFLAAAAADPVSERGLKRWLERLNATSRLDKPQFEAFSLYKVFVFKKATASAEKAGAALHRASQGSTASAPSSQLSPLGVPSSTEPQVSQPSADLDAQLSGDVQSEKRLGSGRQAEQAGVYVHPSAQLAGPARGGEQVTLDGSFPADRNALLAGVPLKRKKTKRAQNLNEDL

[2] = biological target: T2, TgCet (RNA triphosphatase) (Toxoplasma gondii, UniProt S8F0G9); test: ATPase assay; type: biochemical
T2 sequence (S8F0G9 1-920): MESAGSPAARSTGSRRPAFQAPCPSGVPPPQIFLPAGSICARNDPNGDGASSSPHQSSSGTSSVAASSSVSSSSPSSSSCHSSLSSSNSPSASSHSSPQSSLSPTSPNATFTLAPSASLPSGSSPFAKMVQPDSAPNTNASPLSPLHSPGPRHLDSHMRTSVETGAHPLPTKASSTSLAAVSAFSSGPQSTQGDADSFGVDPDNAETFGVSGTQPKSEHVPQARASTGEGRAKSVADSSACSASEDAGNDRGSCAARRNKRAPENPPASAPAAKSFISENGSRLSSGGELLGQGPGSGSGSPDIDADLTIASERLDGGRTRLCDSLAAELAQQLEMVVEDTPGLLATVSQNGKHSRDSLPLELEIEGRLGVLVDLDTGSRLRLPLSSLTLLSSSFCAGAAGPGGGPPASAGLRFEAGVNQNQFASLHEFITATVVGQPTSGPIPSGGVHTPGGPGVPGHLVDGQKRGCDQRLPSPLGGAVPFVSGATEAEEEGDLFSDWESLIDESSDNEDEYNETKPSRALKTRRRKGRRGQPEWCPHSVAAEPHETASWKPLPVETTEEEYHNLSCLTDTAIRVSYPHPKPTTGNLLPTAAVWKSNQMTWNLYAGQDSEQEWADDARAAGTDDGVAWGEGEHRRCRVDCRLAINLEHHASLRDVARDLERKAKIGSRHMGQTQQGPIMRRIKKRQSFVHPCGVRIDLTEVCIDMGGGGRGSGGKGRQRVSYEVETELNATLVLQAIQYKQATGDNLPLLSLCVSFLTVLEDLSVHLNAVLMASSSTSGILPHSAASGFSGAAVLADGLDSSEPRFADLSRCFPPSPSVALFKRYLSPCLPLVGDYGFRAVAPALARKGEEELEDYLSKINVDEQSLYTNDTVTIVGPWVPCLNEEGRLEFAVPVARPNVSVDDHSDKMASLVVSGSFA

Nc1ncnc2c1ncn2[C@@H]1O[C@H](C[C@@H](N)CC[C@H](N)C(=O)O)[C@@H](O)[C@H]1O [sinefungin]
in vitro RNA cap methylation, anti-m7G immuno-dot blot [1]: sinefungin inhibits m^7GpppN32 synthesis in a concentration-dependent manner

O=c1c(O)c(-c2cc(O)c(O)c(O)c2)oc2cc(O)cc(O)c12 [Myricetin]
IC50 [2]: 400 nM
